From patent US4514573A, “Isoprenylamine derivatives” (priority 1981, dated 1985)

Key:
vaccinia virus = experiment: animal or person; assay type: in vivo, ICR female mice; details: Orthopoxvirus vaccinia, in Mus musculus, ip, 192 h, read-out: Prevention from vaccinia infection (Pock inhibition rate %)
[1] = system: Human interferon; normal diploid cells (fibroblast); experiment: Human interferon-inducing activity (in vitro), 3H-uridine-uptake inhibition; assay type: cell-based; details: 25 n molar suspension
Protocol: Interferon was induced according to the method of Edward A. Havell et al. by treating normal diploid cells (fibroblast) originated from human being with each test compound in the form of ethanol solution diluted with PBS (-) (25 n molar suspension). Using the radioisotope microassay method of H. Ishitsuka et al., interferon was measured in terms of 3H-uridine-uptakeinhibition rate.

[2] = Toxicity (50% lethal dose, intravenous); details: mouse, in vivo, ddY male mice 20-25 g, read-out: LD50 (Intravenously administered mg/kg)
Text: Using ddY male mice weighing 20-25 g, 50% lethal dose of each test compound when intravenously administered was obtained, the results of which are shown in Table 5.

Structure (SMILES)	inhibition in vivo at 50 mg/kg (vaccinia virus) [%]	Human interferon 3H uridine-uptake inhibition rate % [1] [%]	further results
COc1ccc(CNC/C=C(\C)CCC=C(C)C)cc1OC	10		
COc1cc(CNCC=C(C)CCC=C(C)CCC=C(C)CCC=C(C)CCC=C(C)CCC=C(C)CCC=C(C)CCC=C(C)CCC=C(C)C)cc(OC)c1OC		21.5	
CC(C)=CCCC(C)=CCCC(C)=CCCC(C)=CCCC(C)=CCCC(C)=CCCC(C)=CCCC(C)=CCCC(C)=CCCC(C)=CCNc1ccc(C(=O)O)cc1 [drawing 26]	15		
CC(C)=CCCC(C)=CCCC(C)=CCCC(C)=CCCC(C)=CCCC(C)=CCCC(C)=CCCC(C)=CCCC(C)=CCCC(C)=CCNc1ccc(C(=O)O)c(O)c1 [drawing 27]	42.9		
CC(C)=CCCC(C)=CCCC(C)=CCCC(C)=CCCC(C)=CCCC(C)=CCCC(C)=CCCC(C)=CCCC(C)=CCCC(C)=CCNCCCc1ccccc1 [drawing 28]	68.1		
CC(C)=CCCC(C)=CCCC(C)=CCCC(C)=CCCC(C)=CCCC(C)=CCCC(C)=CCCC(C)=CCCC(C)=CCCC(C)=CCNCc1ccc([N+](=O)[O-])cc1 [drawing 29]	47.7		
CC(C)=CCCC(C)=CCCC(C)=CCCC(C)=CCCC(C)=CCCC(C)=CCCC(C)=CCCC(C)=CCCC(C)=CCCC(C)=CCNCc1cccc2ccccc12 [drawing 30]	21.6		
CC(C)=CCCC(C)=CCCC(C)=CCCC(C)=CCCC(C)=CCCC(C)=CCCC(C)=CCCC(C)=CCCC(C)=CCCC(C)=CCNCc1ccc(C)cc1 [drawing 31]	44.8		
CC(C)=CCCC(C)=CCCC(C)=CCCC(C)=CCCC(C)=CCCC(C)=CCCC(C)=CCCC(C)=CCCC(C)=CCCC(C)=CCNCc1ccc(Cl)cc1 [drawing 32]	34		
COc1ccc(CNCC=C(C)CCC=C(C)CCC=C(C)CCC=C(C)CCC=C(C)CCC=C(C)CCC=C(C)CCC=C(C)CCC=C(C)CCC=C(C)C)cc1OC [drawing 33]	35.4		
CC(C)=CCCC(C)=CCCC(C)=CCCC(C)=CCCC(C)=CCCC(C)=CCCC(C)=CCCC(C)=CCCC(C)=CCCC(C)=CCNC(c1ccccc1)c1ccccc1 [drawing 34]	14.8		
CC(C)=CCCC(C)=CCCC(C)=CCCC(C)=CCCC(C)=CCCC(C)=CCCC(C)=CCCC(C)=CCCC(C)=CCCC(C)=CCNCCc1ccc(N)cc1 [drawing 35]	64.4		
CC(C)=CCCC(C)=CCCC(C)=CCCC(C)=CCCC(C)=CCCC(C)=CCCC(C)=CCCC(C)=CCCC(C)=CCCC(C)=CCNCCCCc1ccccc1 [drawing 36]	40.3		
COc1ccc(CCNCC=C(C)CCC=C(C)CCC=C(C)CCC=C(C)CCC=C(C)CCC=C(C)CCC=C(C)CCC=C(C)CCC=C(C)CCC=C(C)C)cc1OC [drawing 37]	68.1		
COc1cc(CNCC=C(C)CCC=C(C)CCC=C(C)CCC=C(C)CCC=C(C)CCC=C(C)CCC=C(C)CCC=C(C)CCC=C(C)CCC=C(C)C)ccc1O [drawing 38]	67.1		
COc1ccc(CNCC=C(C)CCC=C(C)CCC=C(C)CCC=C(C)CCC=C(C)CCC=C(C)CCC=C(C)CCC=C(C)CCC=C(C)CCC=C(C)C)cc1 [drawing 39]	58.8		
COc1ccc(CNCC=C(C)CCC=C(C)CCC=C(C)CCC=C(C)CCC=C(C)CCC=C(C)CCC=C(C)CCC=C(C)CCC=C(C)C)cc1OC [drawing 40]	54.1		
CC(C)=CCCC(C)=CCCC(C)=CCCC(C)=CCCC(C)=CCCC(C)=CCCC(C)=CCCC(C)=CCCC(C)=CCCC(C)=CCNCc1cccc(CN)c1 [drawing 41]	91.4		
COc1cccc(CNCC=C(C)CCC=C(C)CCC=C(C)CCC=C(C)CCC=C(C)CCC=C(C)CCC=C(C)CCC=C(C)CCC=C(C)CCC=C(C)C)c1OC [drawing 42]	32.5		
CC(C)=CCCC(C)=CCCC(C)=CCCC(C)=CCCC(C)=CCCC(C)=CCCC(C)=CCCC(C)=CCCC(C)=CCCC(C)=CCNCC(O)c1ccccc1 (stereo not shown) [drawing 43]	64.4		
CC(C)=CCCC(C)=CCCC(C)=CCCC(C)=CCCC(C)=CCCC(C)=CCCC(C)=CCCC(C)=CCCC(C)=CCCC(C)=CCNc1ccc(C(=O)O)cc1 [drawing 59]			LD50 [2]: 27.7 mg/kg
CC(C)=CCCC(C)=CCCC(C)=CCCC(C)=CCCC(C)=CCCC(C)=CCCC(C)=CCCC(C)=CCCC(C)=CCCC(C)=CCNc1ccc(C(=O)O)c(O)c1 [drawing 60]			LD50 [2]: 45 mg/kg
CC(C)=CCCC(C)=CCCC(C)=CCCC(C)=CCCC(C)=CCCC(C)=CCCC(C)=CCCC(C)=CCCC(C)=CCCC(C)=CCNCc1ccc([N+](=O)[O-])cc1 [drawing 61]			LD50 [2]: > 269 mg/kg
CC(C)=CCCC(C)=CCCC(C)=CCCC(C)=CCCC(C)=CCCC(C)=CCCC(C)=CCCC(C)=CCCC(C)=CCCC(C)=CCNCc1cccc2ccccc12 [drawing 62]			LD50 [2]: 207 mg/kg
CC(C)=CCCC(C)=CCCC(C)=CCCC(C)=CCCC(C)=CCCC(C)=CCCC(C)=CCCC(C)=CCCC(C)=CCCC(C)=CCNCc1ccc(C)cc1 [drawing 63]			LD50 [2]: 123 mg/kg

Structure (SMILES)	inhibition in vivo at 50 mg/kg (vaccinia virus) [%]	Human interferon 3H uridine-uptake inhibition rate % [1] [%]	further results
CC(C)=CCCC(C)=CCCC(C)=CCCC(C)=CCCC(C)=CCCC(C)=CCCC(C)=CCCC(C)=CCCC(C)=CCCC(C)=CCNCc1ccc(Cl)cc1 [drawing 64]			LD50 [2]: 371 mg/kg
COc1ccc(CNCC=C(C)CCC=C(C)CCC=C(C)CCC=C(C)CCC=C(C)CCC=C(C)CCC=C(C)CCC=C(C)CCC=C(C)CCC=C(C)C)cc1OC [drawing 65]			LD50 [2]: 56.8 mg/kg
CC(C)=CCCC(C)=CCCC(C)=CCCC(C)=CCCC(C)=CCCC(C)=CCCC(C)=CCCC(C)=CCCC(C)=CCCC(C)=CCNC(c1ccccc1)c1ccccc1 [drawing 66]			LD50 [2]: 1180 mg/kg
CC(C)=CCCC(C)=CCCC(C)=CCCC(C)=CCCC(C)=CCCC(C)=CCCC(C)=CCCC(C)=CCCC(C)=CCCC(C)=CCNCCc1ccc(N)cc1 [drawing 67]			LD50 [2]: 28 mg/kg
COc1ccc(CNCC=C(C)CCC=C(C)CCC=C(C)CCC=C(C)CCC=C(C)CCC=C(C)CCC=C(C)CCC=C(C)CCC=C(C)CCC=C(C)C)cc1 [drawing 68]			LD50 [2]: 68 mg/kg
COc1ccc(CNCC=C(C)CCC=C(C)CCC=C(C)CCC=C(C)CCC=C(C)CCC=C(C)CCC=C(C)CCC=C(C)CCC=C(C)C)cc1OC [drawing 69]			LD50 [2]: 26 mg/kg
COc1cccc(CNCC=C(C)CCC=C(C)CCC=C(C)CCC=C(C)CCC=C(C)CCC=C(C)CCC=C(C)CCC=C(C)CCC=C(C)CCC=C(C)C)c1OC [drawing 70]			LD50 [2]: 30 mg/kg
CC(C)=CCCC(C)=CCCC(C)=CCCC(C)=CCCC(C)=CCCC(C)=CCCC(C)=CCCC(C)=CCCC(C)=CCCC(C)=CCNc1ccc(C(=O)O)cc1 [drawing 71]		12.7	
CC(C)=CCCC(C)=CCCC(C)=CCCC(C)=CCCC(C)=CCCC(C)=CCCC(C)=CCCC(C)=CCCC(C)=CCCC(C)=CCNc1ccc(C(=O)O)c(O)c1 [drawing 72]		39.8	
CC(C)=CCCC(C)=CCCC(C)=CCCC(C)=CCCC(C)=CCCC(C)=CCCC(C)=CCCC(C)=CCCC(C)=CCCC(C)=CCNCCCc1ccccc1 [drawing 73]		17.7	
CC(C)=CCCC(C)=CCCC(C)=CCCC(C)=CCCC(C)=CCCC(C)=CCCC(C)=CCCC(C)=CCCC(C)=CCCC(C)=CCNCc1ccc([N+](=O)[O-])cc1 [drawing 74]		23.6	
CC(C)=CCCC(C)=CCCC(C)=CCCC(C)=CCCC(C)=CCCC(C)=CCCC(C)=CCCC(C)=CCCC(C)=CCCC(C)=CCNCc1cccc2ccccc12 [drawing 75]		13.7	
CC(C)=CCCC(C)=CCCC(C)=CCCC(C)=CCCC(C)=CCCC(C)=CCCC(C)=CCCC(C)=CCCC(C)=CCCC(C)=CCNCc1ccc(C)cc1 [drawing 76]		91.1	
CC(C)=CCCC(C)=CCCC(C)=CCCC(C)=CCCC(C)=CCCC(C)=CCCC(C)=CCCC(C)=CCCC(C)=CCCC(C)=CCNCc1ccc(Cl)cc1 [drawing 77]		75.7	
COc1ccc(CNCC=C(C)CCC=C(C)CCC=C(C)CCC=C(C)CCC=C(C)CCC=C(C)CCC=C(C)CCC=C(C)CCC=C(C)CCC=C(C)C)cc1OC [drawing 78]		77.8	
CC(C)=CCCC(C)=CCCC(C)=CCCC(C)=CCCC(C)=CCCC(C)=CCCC(C)=CCCC(C)=CCCC(C)=CCCC(C)=CCNCCCCc1ccccc1 [drawing 79]		67.2	
COc1ccc(CCNCC=C(C)CCC=C(C)CCC=C(C)CCC=C(C)CCC=C(C)CCC=C(C)CCC=C(C)CCC=C(C)CCC=C(C)CCC=C(C)C)cc1OC [drawing 80]		32.5	
COc1cc(CNCC=C(C)CCC=C(C)CCC=C(C)CCC=C(C)CCC=C(C)CCC=C(C)CCC=C(C)CCC=C(C)CCC=C(C)CCC=C(C)C)ccc1O [drawing 81]		41.9	
COc1ccc(CNCC=C(C)CCC=C(C)CCC=C(C)CCC=C(C)CCC=C(C)CCC=C(C)CCC=C(C)CCC=C(C)CCC=C(C)CCC=C(C)C)cc1 [drawing 82]		61.4	
COc1ccc(CNCC=C(C)CCC=C(C)CCC=C(C)CCC=C(C)CCC=C(C)CCC=C(C)CCC=C(C)CCC=C(C)CCC=C(C)C)cc1OC [drawing 83]		86.9	
CC(C)=CCCC(C)=CCCC(C)=CCCC(C)=CCCC(C)=CCCC(C)=CCCC(C)=CCCC(C)=CCCC(C)=CCCC(C)=CCNCc1cccc(CN)c1 [drawing 84]		20.2	
COc1cccc(CNCC=C(C)CCC=C(C)CCC=C(C)CCC=C(C)CCC=C(C)CCC=C(C)CCC=C(C)CCC=C(C)CCC=C(C)CCC=C(C)C)c1OC [drawing 85]		26.6	
CC(C)=CCCC(C)=CCCC(C)=CCCC(C)=CCCC(C)=CCCC(C)=CCCC(C)=CCCC(C)=CCCC(C)=CCCC(C)=CCNCC(O)c1ccccc1 (stereo not shown) [drawing 86]		37.6	
COc1ccc(CNCC=C(C)CCCC(C)CCCC(C)CCCC(C)C)cc1OC (stereo not shown) [drawing 87]		1.8	
